We go through 2 compounds from patent US20150328320A1, “Novel Pharmaceutical Composition” (GLAXOSMITHKLINE LLC, priority 2012, published 2015).

Each structure is given as a SMILES string. Entries after “also recorded” stand apart in the source; their conditions may differ.

Data set [1] can be described thus: Trametinib concentration profile as a function of time and Cavitron concentration (FIG. 2).
The nature of data set [2]: Exposure and absorption upon in vivo administration. From the text:
Suitably the powder for oral solution (POS) of the current invention contain micronized Compound A where at least 90% of the particles of Compound A are from 1 to 20 microns, suitably from 2.2 to 10.5 microns, such formulations provide an acceptable exposure/absorption profile. Suitably the powder for oral solution (POS) of the current invention contains micronized Compound A where at least 50% of the particles of Compound A are from 1 to 6 microns, suitably from 1.5 to 4.3 microns, such formulations provide an acceptable exposure/absorption profile. Suitably the powder for oral solution (POS) of the current invention contains micronized Compound A where at least 10% of the particles of Compound A are from 0.01 to 3.0 microns, suitably from 0.77 to 1.3 microns, such formulations provide an acceptable exposure/absorption profile. Such formulations help provide safe and effective treatment.

Data set [3] is described as follows: Aqueous solubility of trametinib in the presence of various solubilizers (FIG. 1). In kind it is physicochemical. An excerpt: FIG. 1 depicts the aqueous solubility of trametinib in the presence of various solubilizers.
As used herein, “solubilizer” is a substance (liquid or solid) that helps to keep the drug uniformly dispersed and dissolved in solution. A solubilizer prevents recrystallization and precipitation of the dissolved drug out of solution. For use in the present invention, suitable solubilizers include, but are not limited to, hypromellose, polyvinylpyrrolidone, sulfobutylether B-cyclodextrin (Captisol) and hydroxypropyl B-cyclodextrin (Cavitron). A combination of solubilizers can also be used. […] Suitably, the amount of solubilizer in a formulation according to the invention will be selected from: about 30 to 95%; suitably about 50 to 80%; suitably about 65 to 75%; by weight of the final product. Suitably, the amount of solubilizer in a formulation according to the invention will be selected from: about 30%; suitably about 35%, suitably about 40%, suitably about 45%, suitably about 50%, suitably about 55%, suitably about 60%, suitably about 65%, suitably about 70%, suitably about 75%, suitably about 80%, suitably about 85%, suitably about 90%, and suitably about 95%, by weight of the final product.

Data set [4] concerns BRAF V600-mutation positive metastatic melanoma. The note with it: subjects with BRAF V600-mutation positive metastatic melanoma, Phase III study; cited from earlier work.
Data set [5] can be described thus: Physical stability, photo-stability and relative solubility of the drug substance. It counts as physicochemical. An excerpt:
Several additional challenges exist concerning the use of Compound A in a pediatric formulation.
The potential for unacceptable levels of photo-degradation is of particular importance since photo-catalyzed degradation products may be potentially toxic.

The nature of data set [6]: Effect of HPMC and solubilizers on aqueous solubility of trametinib (FIG. 3). It counts as physicochemical. The note with it: HPMC present in a cavitron solution, initial 1 mg/mL.
Data set [7] is described as follows: Solubility profile at 0.05 mg/mL using solubilizers as a function of time (FIG. 4). The note with it: 30 days, 25° C. and 60% relative humidity. It counts as physicochemical.

Turning to `CC(=O)Nc1cccc(-n2c(=O)n(C3CC3)c(=O)c3c(Nc4ccc(I)cc4F)n(C)c(=O)c(C)c32)c1` [Compound A, N-{3-[3-cyclopropyl-5-(2-fluoro-4-iodo-phenylamino)-6,8-dimethyl-2,4,7-trioxo-3,4,6,7-tetrahydro-2H-pyrido[4,3-d]pyrimidin-1-yl]phenyl}acetamide dimethyl sulfoxide solvate], the “trametinib concentration remaining in solution” value in data set [1] (Cavitron solutions, initial concentration 1 mg/mL, after five days) was 7-10 % of the initial concentration. The exposure and absorption result in data set [2] was “poor exposure and absorption”. The aqueous solubility result is “good aqueous solubility” in data set [3] (hypromellose and hydroxypropyl B-cyclodextrin combined); “greatest solubility” in data set [3] (in hydroxypropyl B-cyclodextrin (Cavitron) formulation); “very low aqueous solubility” in data set [3] (in polyethylene glycol (PEG) solution); “generally not soluble” in data set [3] (in polyethylene glycol (PEG) solution, listed as Trametinib); “very low aqueous solubility” in data set [3] (in propylene glycol solution); “generally not soluble” in data set [3] (in propylene glycol solution, listed as Trametinib). The anti-tumor activity result in data set [4] was “has shown anti-tumor activity”. For the same compound, the “physical stability of the solvate (desolvation)” value in data set [5] (high humidity or aqueous environment, handling and formulation) was “favors conversion from the dimethyl sulfoxide solvate to the de-solvated form; also recorded: can undergo desolvation”. Moreover, the photo-stability entry in data set [5] (light) is reported as “very sensitive to light; also recorded: can suffer from photo-instability”. The “stability of solution (precipitation)” value in data set [6] was “increases the stability of trametinib solution”. The “solubility and solution stability over time” value in data set [7] (captisol solution) was “able to maintain the solubility and stabilize the solution for 30 days”; in data set [7] (cavitron solution), “able to maintain the solubility and stabilize the solution for 30 days”.

As to `CC(=O)Nc1cccc(-n2c(=O)n(C3CC3)c(=O)c3c(Nc4ccc(I)cc4F)n(C)c(=O)c(C)c32)c1` [Compound B, N-{3-[3-cyclopropyl-5-(2-fluoro-4-iodo-phenylamino)-6,8-dimethyl-2,4,7-trioxo-3,4,6,7-tetrahydro-2H-pyrido[4,3-d]pyrimidin-1-yl]phenyl}acetamide], the “precipitation out of solution” value in data set [1] (starting concentration ~0.05 mg/mL, conditions of FIG. 2) is “no significant amount of the drug will precipitate out of solution”. For the same compound, the “solubility relative to Compound A” value in data set [5] is listed as “much less soluble than Compound A”.
